The values below come from US20180171411A1, “GFRalpha1 AS A BIOMARKER FOR CISPLATIN-INDUCED CHEMORESISTANCE AND METASTASIS” (THE BOARD OF REGENTS OF THE UNIVERSITY OF TEXAS SYSTEM, priority 2015, published 2018).

One assay relates to MG-63 cells. Put plainly: Transmission electron microscopy of autophagic vacuoles. Format: cell-based, human. To be noted: control MG-63 cells; cisplatin 20 μM, 24 hr. On the procedure: FIG. 3. GFRα1-induced autophagy enhances the chemoresistance of osteosarcoma cells induced by cisplatin. (a) Control and GFRα1-deficient MG-63 cells were transiently transfected with a mRFP-GFP tandem fluorescent-tagged LC3 (mRFP-GFP-LC3) vector and then treated with cisplatin (20μM) for 24 hr. Left, representative images of RFP-LC3 and GFP-LC3 puncta. Scale bar, 20 μm. Right, quantitative analysis of the number of yellow puncta and the number of RFP-LC3 puncta in the combined images. The values are represented as a mean±s.d.m. (n=3). ** denotes p<0.05 by t-test. (b) Control and GFRα1-deficient MG-63 cells were treated with cisplatin (20 μM) for 24 hr and then stained with acridine orange. […] Bottom, quantitative analysis of the number of AVOs. […] (c) Control and GFRα1-deficient MG-63 cells were treated with cisplatin (20 μM) for 24 hr and then analyzed by TEM. Top, representative images of autophagic vacuoles (yellow arrows) detected after cisplatin treatment in control MG-63 cells. […] Bottom, quantitative analysis of the number of autophagic vacuoles. […] (e) Quantitative analysis of the number of yellow puncta and the number of RFP-LC3 puncta in control and GFRα1-overexpressing MG-63 cells. […] Bottom, quantitative analysis of the number of AVOs. […] (h) Control and GFRα1-overexpressing MG-63 cells were treated with cisplatin (20 μM) for 24 hr and then analyzed by TEM. […]

Assay [1] concerns APE1 expression in osteosarcoma cells. The experiment in a line: Immunoblot of APE1 expression after cisplatin. The format is cell-based, human. To be noted: different concentrations of cisplatin, 24 h. On the procedure: FIG. 10. GFRα1-mediated chemoresistance of osteosarcoma cells is independent of APE and RET signaling. (a) Immunoblot analysis of MG-63 cell lysates with antibodies specific for APE, RET and β-actin. MG-63 and U-2 OS cells were treated with different concentrations of cisplatin for 24 h. The cell lysates of GDNF-treated MIA PaCa-2 were used as positive controls for APE and RET expression.
Immunoblotting. Cells were washed with PBS and lysed in RIPA Buffer (Pierce, Rockford, Ill.). The protein content was determined using a dye-binding microassay (Bio-Rad, Hercules, Calif.), and 10-50 μg protein per lane was electrophoresed on 4-12% SDS polyacrylamide gels. Proteins were blotted onto Hybond ECL membranes (Amersham Pharmacia Biotech, Piscataway, N.J.). Two protein ladders were used for molecular weight determination (GenDEPOT, Barker, Tex.). The blotted proteins were detected using an enhanced chemiluminescence detection system (iNtRON, Seoul, Korea). Data were quantified and analyzed with Image-J software.

For the compound `N.N.[Cl][Pt][Cl]` [cisplatin, Cis-Diamineplatinum(II) dichloride], the “number of autophagic vacuoles per cell” value in the assay on MG-63 cells was “markedly increased”. Moreover, the “level of APE1 expression” value in assay [1] is on record as “not affected”.
